PMC10542255, “A phase 1 trial of fuzuloparib in combination with apatinib for advanced ovarian and triple-negative breast cancer: efficacy, safety, pharmacokinetics and germline BRCA mutation analysis” (BMC Medicine, 2023)

Assays:
[1] = human, in vivo
Method: The study used a standard 3 + 3 dose escalation design. The starting dose of fuzuloparib was 40 mg twice daily (bid) in combination with a fixed dose of apatinib at 250 mg once daily (qd); fuzuloparib could be dose escalated in 20 mg increments to up to 100 mg. An additional dose level of fuzuloparib 80 mg bid plus apatinib 375 mg qd was planned after assessment of the regimen of fuzuloparib 80 mg bid plus apatinib 250 mg qd. If dose escalation of fuzuloparib to 100 mg was completed, dose escalation for apatinib was initiated with two dose level planned: 375 mg qd and 500 mg qd (with fuzuloparib fixed at 100 mg bid). During dose escalation, the next-higher dose level was opened if less than one-third of patients in the previous dose level experienced a dose-limiting toxicity (DLT). Based on preliminary safety and efficacy data in the dose-escalation cohort, dose levels for PK-expansion were selected, with a total of 8–12 patients enrolled in each level. All patients received a single dose of oral fuzuloparib on day 1 and a single dose of oral apatinib on day 4 in cycle 0 (6 days in total), followed by continuous dosing of fuzuloparib and apatinib in 28-day cycles starting on cycle 1 day 1. Treatment continued until disease progression, intolerable toxicity, or patient withdrawal.
Pharmacokinetic sampling for single dose of fuzuloparib and apatinib was done on day 1 and day 4 (pre-dose and 0.5, 1, 2, 3, 4, 8, 12, 24, 48 h post-dose) of cycle 0, respectively; sampling for continuous dosing of the combination therapy was done on days 1 (pre-dose and 0.5, 1, 2, 3, 4, 8, 12, 24 h post-dose), 8 (pre-dose), 15 (pre-dose), 22 (pre-dose) of cycle 1, and day 1 (pre-dose and 0.5, 1, 2, 3, 4, 8, 12, 24 h post-dose) of cycle 2.
All enrolled patients who received at least one dose of study drug were included in the efficacy and safety analysis. […] Time-to-event endpoints were estimated using the Kaplan–Meier method, with the 95% CIs calculated using the Brookmeyer and Crowley method. PK parameters were calculated using the WinNonlin noncompartmental model. […]

[2] = system: gBRCAmut, platinum-sensitive OC; set-up: method as in PMID 33558426; details: fuzuloparib monotherapy, phase 2, gBRCAmut platinum-sensitive OC; cited from earlier work

| Structure (SMILES) | Dose dependence of apatinib plasma exposure (AUC0-∞) [1] | Reduction of apatinib AUC0-24 h (cycle 2 day 1) vs AUC0-∞ after single apatinib monotherapy dose (cycle 0 day 4) [1] | Dose dependence of fuzuloparib plasma exposure (AUC0-12 h) [1] | Median PFS [2] [months] | ORR [2] [%] |
| --- | --- | --- | --- | --- | --- |
| N#CC1(c2ccc(NC(=O)c3cccnc3NCc3ccncc3)cc2)CCCC1 [apatinib] | increased in a dose-dependent manner | 47.7%-65.0% | – | – | – |
| O=C(c1cc(Cc2n[nH]c(=O)c3ccccc23)ccc1F)N1CCn2nc(C(F)(F)F)nc2C1 [fuzuloparib] | – | – | increased in a dose-dependent manner | 12.0 | 69.9 |
